This note sets out measurements from PubChem BioAssay (NCI).

Test systems include 786-0 renal; COLO 205 colon; DU-145 prostate; IGROV1 ovarian; MDA-MB-435; NCI-H460 lung; SF-268 CNS; SN12C renal; T-47D breast; UACC-62 melanoma.
Holding throughout (experiment): NCI anticancer screen, dose series, 48 h

The structures appear in SMILES notation. “And” between values parts separate entries of the source, which are not always exact repeats. Equal entries are not always repeated.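 Test compounds were applied to cells in 96-well plates for 48 hours at 5 doses. At the GI50, growth is halved. TGI is the concentration that stops growth completely.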

Turning to `Cc1cc(Cl)ccc1Nc1nc(C(F)(F)F)ccc1C(=O)N/N=C/c1ccc(F)cc1`, the GI50 in the assay on 786-0 renal is 1.45 µM; with COLO 205 colon, 1.61 µM; in the assay on DU-145 prostate, 3.46 µM; in the assay on IGROV1 ovarian it was 2.11 µM; in the assay with MDA-MB-435 it was 2.78 µM; in the assay with NCI-H460 lung it was 1.95 µM. Moreover, the GI50 is 1.14 µM in the assay on SF-268 CNS, 2.56 µM in the assay on SN12C renal, 1.6 µM in the assay with T-47D breast and 1.79 µM with UACC-62 melanoma. Besides, the TGI worked out at 5.93 µM with 786-0 renal; 3.64 µM with COLO 205 colon; 13.8 µM with DU-145 prostate; 13.9 µM in the assay with IGROV1 ovarian; 11 µM with MDA-MB-435; 6.04 µM in the assay on NCI-H460 lung. Besides, the TGI is 5.64 µM in the assay on SF-268 CNS, 11.4 µM with SN12C renal, 7.13 µM in the assay on T-47D breast and 3.82 µM in the assay on UACC-62 melanoma.

Consider `N=c1c2c(=O)n3c(nc2nc2sc4ccc(Cl)cc4n12)-c1ccccc1Sc1ccccc1-3`, for which the GI50 is 2.55 µM in the assay on 786-0 renal; 2.24 µM in the assay with COLO 205 colon; 4.31 µM in the assay on DU-145 prostate; 3.81 µM in the assay with IGROV1 ovarian; 2.67 µM in the assay on MDA-MB-435; 2.07 µM in the assay on NCI-H460 lung. Further, the GI50 in the assay with SF-268 CNS was 3.52 µM; with SN12C renal, 2.94 µM; in the assay on T-47D breast it was 2.54 µM; in the assay with UACC-62 melanoma, 1.28 µM. Also, the TGI in the assay on 786-0 renal turned out to be 6.84 µM; in the assay with COLO 205 colon it was 5.24 µM; in the assay with DU-145 prostate it was 19.7 µM; in the assay with IGROV1 ovarian, 18.3 µM; with MDA-MB-435, 13.1 µM; in the assay with NCI-H460 lung it was 6.98 µM. Moreover, the TGI in the assay on SF-268 CNS worked out at 18.3 µM; with SN12C renal, 14 µM; in the assay with T-47D breast, 7.23 µM; in the assay with UACC-62 melanoma it was 3.27 µM.

Consider `COc1ccc(-c2oncc2-c2cc(OC)c3c(c2)OCO3)cc1`, for which the GI50 in the assay on 786-0 renal is 7.67 µM; with COLO 205 colon it was 2.8 µM; in the assay on DU-145 prostate it was 3.93 µM; in the assay on IGROV1 ovarian, 3.9 µM; with MDA-MB-435, 0.275 µM; with NCI-H460 lung it was 3.58 µM. Further, the GI50 is 7.38 µM in the assay with SF-268 CNS, 5.23 µM with SN12C renal, 4.29 µM in the assay with T-47D breast and 2.85 µM with UACC-62 melanoma. Moreover, the TGI was more than 100 µM in the assay with 786-0 renal; 10.4 µM in the assay on COLO 205 colon; more than 100 µM in the assay with DU-145 prostate; more than 65.7 µM with IGROV1 ovarian; 1.27 µM in the assay on MDA-MB-435; more than 100 µM with NCI-H460 lung. Moreover, the TGI was more than 100 µM in the assay with SF-268 CNS, more than 100 µM in the assay with SN12C renal, more than 100 µM in the assay with T-47D breast and 57.7 µM in the assay on UACC-62 melanoma.

Take `CNC(=S)N/N=C(/C)CCC/C(C)=N/NC(=S)NC`: the TGI in the assay with 786-0 renal, in the assay with COLO 205 colon, with DU-145 prostate, in the assay with IGROV1 ovarian, in the assay with MDA-MB-435 and in the assay on NCI-H460 lung was more than 100 µM throughout. The TGI with SF-268 CNS is more than 88.7 µM; in the assay with SN12C renal, more than 100 µM; in the assay with T-47D breast, more than 100 µM; in the assay on UACC-62 melanoma, more than 100 µM.

As to `O=C1/C(=c2\c3ccccc3n3c(=O)c4ccccc4nc23)Nc2ccccc21`, the TGI with 786-0 renal is more than 100 µM; in the assay with COLO 205 colon, more than 100 µM; with DU-145 prostate, more than 100 µM; in the assay on IGROV1 ovarian, more than 100 µM; in the assay with MDA-MB-435, 36.8 µM; in the assay with NCI-H460 lung, more than 100 µM. Further, the TGI in the assay with SF-268 CNS, in the assay with SN12C renal, in the assay on T-47D breast and with UACC-62 melanoma was more than 100 µM throughout.

As for `COc1cc([C@@H]2c3cc4c(cc3[C@H](O)[C@H]3COC(=O)[C@@H]23)OCO4)cc(OC)c1OC`, the GI50 was 0.504 µM and 0.332 µM in the assay on 786-0 renal; 0.347 µM and 0.132 µM in the assay on COLO 205 colon; 0.544 µM and 0.237 µM with DU-145 prostate; 0.423 µM and 0.24 µM in the assay with IGROV1 ovarian; 0.124 µM and 0.0315 µM in the assay on MDA-MB-435; 0.371 µM and 0.138 µM in the assay on NCI-H460 lung. The GI50 was 0.722 µM and 0.445 µM in the assay with SF-268 CNS; 0.677 µM and 0.4 µM in the assay on SN12C renal; 0.405 µM in the assay with T-47D breast; 0.407 µM and 0.153 µM with UACC-62 melanoma. Further, the TGI is more than 100 µM in the assay with 786-0 renal; 1.3 µM and 0.431 µM in the assay on COLO 205 colon; more than 100 µM in the assay on IGROV1 ovarian; 0.377 µM and 0.132 µM in the assay on MDA-MB-435; > 10 µM and 3.07 µM in the assay on NCI-H460 lung; more than 100 µM in the assay with SF-268 CNS. In addition, the TGI in the assay with SN12C renal was more than 100 µM; with T-47D breast, 4.64 µM; in the assay with UACC-62 melanoma, more than 100 µM.

As for `Cc1ccc(S(=O)(=O)C2=C3C(=C(c4ccccc4)c4ccccc43)CN(S(=O)(=O)c3ccc(C)cc3)C2)cc1`, the GI50 in the assay with 786-0 renal is 1.67 µM; with COLO 205 colon it was 14.9 µM; in the assay on DU-145 prostate, 11.8 µM; in the assay on IGROV1 ovarian, 5.36 µM; with MDA-MB-435, 3.76 µM; in the assay on NCI-H460 lung, 1.94 µM. For the same molecule, the GI50 was 2.6 µM with SF-268 CNS, 3.04 µM in the assay on SN12C renal, 2.91 µM in the assay with T-47D breast and 4.85 µM with UACC-62 melanoma. Besides, the TGI in the assay with 786-0 renal is 3.22 µM; in the assay with COLO 205 colon, more than 100 µM; in the assay with DU-145 prostate, more than 100 µM; in the assay on IGROV1 ovarian, 62.6 µM; in the assay on MDA-MB-435, 17.9 µM; in the assay with NCI-H460 lung, 15.1 µM. For the same molecule, the TGI with SF-268 CNS was found to be 12.9 µM; with SN12C renal, 20.1 µM; in the assay on T-47D breast it was 31.5 µM; in the assay on UACC-62 melanoma, 24.9 µM.

Consider `COc1cc2c3c(n(CCCN4CCOCC4)c(=O)c2cc1OC)-c1cc2c(cc1C3=O)OCO2`, for which the GI50 was 0.689 µM with 786-0 renal; 40.4 µM in the assay on COLO 205 colon; 0.612 µM with DU-145 prostate; more than 61 µM with IGROV1 ovarian; 28 µM in the assay on MDA-MB-435; 0.277 µM in the assay with NCI-H460 lung. Moreover, the GI50 is 0.954 µM in the assay with SF-268 CNS, 0.821 µM in the assay with SN12C renal, more than 50.8 µM in the assay with T-47D breast and 0.193 µM in the assay on UACC-62 melanoma. In addition, the TGI in the assay on 786-0 renal was 20.3 µM; in the assay on COLO 205 colon, more than 100 µM; in the assay with DU-145 prostate, more than 21.6 µM; in the assay on IGROV1 ovarian it was more than 100 µM; with MDA-MB-435, more than 84.4 µM; with NCI-H460 lung it was more than 100 µM. The TGI in the assay with SF-268 CNS was more than 100 µM; with SN12C renal it was more than 100 µM; in the assay with T-47D breast, more than 100 µM; with UACC-62 melanoma, 2.29 µM.
